Data: patent publication US6136825A, “Sulfonamide compounds having 5-HT receptor activity” (Knoll Aktiengesellschaft, priority 1996, dated 2000)

What was measured:
[1] = target: T1, D2-like dopamine receptors (Rattus norvegicus, UniProt P61169); assay: inhibition of tritiated (S)-sulpiride binding to D2-like dopamine receptors, rat striatal tissue; parameters: species or system male Charles River CD rats; conditions: for Ki: 4° C., 40 minutes, pH 7.7; for inhibition at 1 µM: at 10^-6 M, read-out: % displacement of specific binding, D2-like
T1 construct: Striatal tissue from the brains of male Charles River CD rats; from tissue; host or cells: rat striatum (male Charles River CD rats), crude membrane pellet
T1 sequence (P61169 whole entry): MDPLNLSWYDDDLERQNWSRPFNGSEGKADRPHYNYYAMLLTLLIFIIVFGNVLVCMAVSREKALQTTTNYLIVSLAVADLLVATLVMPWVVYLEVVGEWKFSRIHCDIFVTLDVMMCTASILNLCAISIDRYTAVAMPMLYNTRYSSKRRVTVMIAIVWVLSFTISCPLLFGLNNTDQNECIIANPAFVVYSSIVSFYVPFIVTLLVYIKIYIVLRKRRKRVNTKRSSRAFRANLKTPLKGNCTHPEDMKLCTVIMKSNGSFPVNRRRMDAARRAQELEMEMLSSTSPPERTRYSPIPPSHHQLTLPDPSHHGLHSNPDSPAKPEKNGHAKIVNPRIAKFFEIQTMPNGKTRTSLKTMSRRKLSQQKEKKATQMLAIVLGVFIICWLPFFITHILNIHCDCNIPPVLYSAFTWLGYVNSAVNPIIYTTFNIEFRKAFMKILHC
Protocol: Striatal tissue from the brains of male Charles River CD rats weighing between 140-250 g were homogenised in ice-cold 50 mM Tris-HCl buffer (pH 7.7 when measured at 25° C.) and centrifuged at 40,000 g for 10 minutes. The pellet was resuspended in Tris salts buffer (50 mM Tris-HCl buffer containing 120 mM NaCl, 5 mM KCl, 2 mM CaCl2 and 1 mM MgCl2 with the addition of 6 mM ascorbic acid; pH 7.7 when measured at 25° C.), and again centrifuged at 40,000 g for 10 minutes. The final pellet was stored at -80° C. Before each test the pellet was resuspended in Tris salts buffer (equivalent to 2 mg wet weight of tissue/ml). Aliquots (720 μl; equivalent to 1.44 mg wet weight of tissue/tube) of this suspension were then added to tubes containing the ligand (40 μl; 1 nM) and Tris salts buffer (40 μl; total binding) or spiroperidol (40 μl; 10 nM; non-specific binding) or test compound (40 μl; at a single concentration of 10^-6 M or at 6 concentrations ranging from 10^-11 -10^-4 M). The ligand was tritiated (S)-sulpiride and the mixture was incubated at 4° C. for 40 minutes before the incubation was terminated by rapid filtration.
The filters were washed with ice-cold Tris-HCl buffer and dried. The filters were punched out in to vials, scintillation fluid added and were left for about 20 hours before being counted by scintillation spectrophotometry. The percentage displacement of specific binding of the tritiated ligand was calculated for the single concentration (10^-6 M) of test compound. Displacement curves were then produced over a range of concentrations for those compounds which displaced ≥50% of specific binding of the tritiated ligand at 10^-6 M. The concentration which gave a 50% inhibition of specific binding (IC50) was obtained from the curve. The inhibition coefficient Ki was then calculated using the formula [formula] in which [ligand] is the concentration of the tritiated ligand used and KD is the equilibrium dissociation constant for the ligand.

[2] = target: T2, 5-HT1A (Rattus norvegicus, UniProt P19327); assay: inhibition of tritiated ligand ([3H]8-OH-DPAT) binding to 5-HT1A receptors, rat hippocampal tissue; parameters: species or system male Charles River CD rats; conditions: for Ki: 25° C., 30 minutes, pH 7.7; for inhibition at 1 µM: at 10^-6 M, read-out: % displacement of specific binding, 5-HT1A
T2 construct: Hippocampal tissue from the brains of male Charles River CD rats; from tissue; host or cells: rat hippocampus (male Charles River CD rats), crude membrane pellet
T2 sequence (P19327 1-422): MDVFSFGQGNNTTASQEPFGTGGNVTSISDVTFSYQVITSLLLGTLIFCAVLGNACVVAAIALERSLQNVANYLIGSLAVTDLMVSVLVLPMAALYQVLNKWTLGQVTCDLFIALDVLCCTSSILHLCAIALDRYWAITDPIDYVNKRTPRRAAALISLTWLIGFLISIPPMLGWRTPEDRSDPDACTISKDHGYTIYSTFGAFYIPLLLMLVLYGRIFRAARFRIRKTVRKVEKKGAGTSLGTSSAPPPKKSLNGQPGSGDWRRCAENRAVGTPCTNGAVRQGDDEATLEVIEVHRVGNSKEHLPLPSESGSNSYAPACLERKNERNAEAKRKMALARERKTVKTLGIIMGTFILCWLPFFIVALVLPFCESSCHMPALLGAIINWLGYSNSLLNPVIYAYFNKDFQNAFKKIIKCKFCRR
Protocol: Hippocampal tissue from the brains of male Charles River CD rats weighing between 150-250 g were homogenised in ice-cold 50 mM Tris-HCl buffer (pH 7.7) when measured at 25° C., 1:40 w/v) and centrifuged at 30,000 g at 4° C. for 10 minutes. The pellet was rehomogenised in the same buffer, incubated at 37° C. for 10 minutes and centrifuged at 30,000 g at 4° C. for 10 minutes. The final pellet was resuspended in 50 mM Tris-HCl buffer (pH 7.7) containing 4 mM CaCl2, 0.1% L-ascorbic acid and 10 μM pargyline hydrochloride (equivalent to 6.25 mg wet weight of tissue/ml) and used immediately in the binding assay. Aliquots (400 μl; equivalent to 2.5 mg wet weight of tissue/tube) of this suspension were added to tubes containing the ligand (50 μl; 2 nM) and distilled water (50 μl; total binding) or 5-HT (50 μl; 10 μM; non-specific binding) or test compound (50 μl; at a single concentration of 10^-6 M or at 10 concentrations ranging from 10^-11 -10^-3 M). The ligand was [^3 H]8-hydroxy-2-(dipropylamino)tetralin ([^3 H]8-OH-DPAT) and the mixture was incubated at 25° C. for 30 minutes before the incubation was terminated by rapid filtration.
The filters were washed with ice-cold Tris-HCl buffer and dried. The filters were punched out into vials, scintillation fluid added and radioactivity determined by liquid scintillation counting. The percentage displacement of specific binding of the tritiated ligand was calculated for the single concentration (10^-6 M) of test compound. Displacement curves were then produced for those compounds which displaced ≥50% of specific binding of the tritiated ligand at 10^-6 M using a range of concentrations of the compound. The concentration which gave 50% inhibition of specific binding (IC50) was obtained from the curve. The inhibition coefficient Ki was then calculated using the formula [formula] in which [ligand] is the concentration of the tritiated ligand used and KD Is the equilibrium dissociation constant for the ligand.

| SMILES | Ki [1] | Ki [2] | inhibition at 1 µM [2] | inhibition at 1 µM [1] |
| --- | --- | --- | --- | --- |
| O=S(=O)(NCC1CCN(C[C@H]2COc3ccc(Cl)cc3O2)CC1)c1ccc(OC(F)(F)F)cc1 [Example 29, (S)-N-{[1-(7-Chloro-1,4-benzodioxan-2-ylmethyl)-4-piperidyl]methyl}-4-trifluoromethoxybenzenesulphonamide] | 357 nM | – | 67% | – |
| O=S(=O)(NCC1CCN(C[C@H]2COc3ccc(Br)cc3O2)CC1)c1ccccc1F [Example 45, (S)-(-)-N-{[1-(7-Bromo-1,4-benzodioxan-2-ylmethyl)-4-piperidyl]methyl}-2-fluorobenzenesulphonamide] | – | – | 97% | 109% |
| Cc1c([N+](=O)[O-])cc(S(=O)(=O)NCC2CCN(C[C@H]3COc4ccc(Cl)cc4O3)CC2)cc1[N+](=O)[O-] [Example 26, (S)-N-{[1-(7-Chloro-1,4-benzodioxan-2-ylmethyl)-4-piperidyl]methyl}-4-methyl-3,5-dinitrobenzenesulphonamide] | – | – | 88% | 87% |
| O=S(=O)(NCC1CCN(C[C@H]2COc3ccc(Cl)cc3O2)CC1)c1cc(OCC(F)(F)F)ccc1OCC(F)(F)F [Example 16, (S)-N-{[1-(7-Chloro-1,4-benzodioxan-2-ylmethyl)-4-piperidyl]methyl}-2,5-bis(2,2,2-trifluoroethoxy)benzenesulphonamide] | 258 nM | – | 84% | – |
| COc1cc(C)c(S(=O)(=O)NCC2CCN(C[C@H]3COc4ccc(Cl)cc4O3)CC2)c(C)c1C [Example 19, (S)-N-{[1-(7-Chloro-1,4-benzodioxan-2-ylmethyl)-4-piperidyl]methyl}-4-methoxy-2,3,6-trimethylbenzenesulphonamide] | 306 nM | – | 55% | – |
| COc1ccc(OC)c(S(=O)(=O)NCC2CCN(C[C@H]3COc4ccc(Cl)cc4O3)CC2)c1 [Example 32, (S)-N-{[1-(7-Chloro-1,4-benzodioxan-2-ylmethyl)-4-piperidyl]methyl}-2,5-dimethoxybenzenesulphonamide] | 285 nM | – | 87% | – |
| O=S(=O)(NCC1CCN(C[C@H]2COc3ccc(Cl)cc3O2)CC1)c1ccc(C(F)(F)F)cc1Cl [Example 17, (S)-2-Chloro-N-{[1-(7-chloro-1,4-benzodioxan-2-ylmethyl)-4-piperidyl]methyl}-4-trifluoromethylbenzenesulphonamide] | 519 nM | – | 88% | – |
| Cc1c(C)c(C)c(S(=O)(=O)NCC2CCN(C[C@H]3COc4ccc(Cl)cc4O3)CC2)c(C)c1C [Example 22, (S)-N-{[1-(7-Chloro-1,4-benzodioxan-2-ylmethyl)-4-piperidyl]methyl}-2,3,4,5,6-pentamethylbenzenesulphonamide] | 317 nM | – | 59% | – |
| O=S(=O)(NCC1CCN(C[C@H]2COc3ccc(Br)cc3O2)CC1)c1ccc(F)c(Cl)c1 [Example 48, (S)-(-)-3-Chloro-N-{[1-(7-bromo-1,4-benzodioxan-2-ylmethyl)-4-piperidyl]methyl}-4-fluorobenzenesulphonamide] | – | – | 88% | 103% |
| O=S(=O)(NCC1CCN(C[C@H]2COc3ccc(Cl)cc3O2)CC1)c1c(F)c(Br)cc(F)c1Br [Example 39, (S)-2,5-Dibromo-N-{[1-(7-chloro-1,4-benzodioxan-2-ylmethyl)-4-piperidyl]methyl}-3,6-difluorobenzenesulphonamide] | 438 nM | – | 98% | – |

Other lines, results leading:

| Ki [1] | Ki [2] | inhibition at 1 µM [2] | inhibition at 1 µM [1] | SMILES |
| --- | --- | --- | --- | --- |
| 111 nM | 25 nM | – | – | O=S(=O)(NCC1CCN(C[C@H]2COc3ccc(C(F)(F)F)cc3O2)CC1)c1cccc(Cl)c1Cl [Example 14, (S)-(-)-2,3-dichloro-N-{[1-(7-trifluoromethyl-1,4-benzodioxan-2-ylmethyl)-4-piperidyl]methyl}benzenesulphonamide] |
| 96.4 nM | 42 nM | – | – | COc1ccc(S(=O)(=O)NCC2CCN(C[C@H]3COc4ccc(Cl)cc4O3)CC2)cc1 [Example 9, (S)-(-)-N-{[1-(7-chloro-1,4-benzodioxan-2-ylmethyl)-4-piperidyl]-methyl}-4-methoxybenzenesulphonamide] |
| 157 nM | 69 nM | – | – | O=S(=O)(NCC1CCN(C[C@H]2COc3ccc(Cl)cc3O2)CC1)c1ccc(Cl)cc1 [Example 11, (S)-(-)-N-{[1-(7-chloro-1,4-benzodioxan-2-ylmethyl)-4-piperidyl]methyl}-4-chlorobenzene-sulphonamide] |
| 28.7 nM | 30 nM | – | – | O=S(=O)(NCC1CCN(C[C@H]2COc3ccc(C(F)(F)F)cc3O2)CC1)c1ccccn1 [Example 12, (S)-(-)-N-J[1-(7-trifluoromethyl-1,4-benzodioxan-2-ylmethyl)-4-piperidyl]methyl,pyridine-2-sulphonamide] |
| 69.8 nM | 37 nM | – | – | O=S(=O)(NCC1CCN(C[C@H]2COc3ccc(Cl)cc3O2)CC1)c1ccc(F)cc1 [Example 5, (S)-(-)-N-{[1-(7-chloro-1,4-benzodioxan-2-ylmethyl)-4-piperidyl]methyl}-4-fluorobenzene-sulphonamide] |
| 102 nM | 20 nM | – | – | O=S(=O)(NCC1CCN(C[C@H]2COc3ccc(Br)cc3O2)CC1)c1cccc(Cl)c1Cl [Example 13, (S)-(-)-N-{[1-(7-bromo-1,4-benzodioxan-2-ylmethyl)-4-piperidyl]methyl}-2,3-dichlorobenzensulphonamide] |
| 40.2 nM | 20 nM | – | – | COc1ccc(S(=O)(=O)NCC2CCN(C[C@H]3COc4ccc(Cl)cc4O3)CC2)cc1OC [Example 6, (S)-(-)-N-{[1-(7-chloro-1,4-benzodioxan-2-ylmethyl)-4-piperidyl]methyl}-3,4-dimethoxybenzenesulphonamide] |
| 215 nM | – | 60% | – | O=S(=O)(NCC1CCN(C[C@H]2COc3ccc(Cl)cc3O2)CC1)c1cccc2ccccc12 [Example 31, (S)-N-{[1-(7-Chloro-1,4-benzodioxan-2-ylmethyl)-4-piperidyl]methyl}-1-naphthalenesulphonamide] |
| 37.8 nM | 35 nM | – | – | O=S(=O)(NCC1CCN(C[C@H]2COc3ccc(Cl)cc3O2)CC1)c1ccc(F)cc1F [Example 7, (S)-(-)-N-{[1-(7-chloro-1,4-benzodioxan-2-ylmethyl)-4-piperidyl]methyl}-2,4-difluorobenzenesulphonamide] |
| 241 nM | – | 65% | – | O=S(=O)(NCC1CCN(C[C@H]2COc3ccc(Cl)cc3O2)CC1)c1ccc2ccccc2c1 [Example 30, (S)-N-{[1-(7-Chloro-1,4-benzodioxan-2-ylmethyl)-4-piperidyl]methyl}-2-naphthalenesulphonamide] |
